The target in the assay is T1, cPLA2 (Homo sapiens, UniProt P47712).
T1 sequence (P47712 1-749): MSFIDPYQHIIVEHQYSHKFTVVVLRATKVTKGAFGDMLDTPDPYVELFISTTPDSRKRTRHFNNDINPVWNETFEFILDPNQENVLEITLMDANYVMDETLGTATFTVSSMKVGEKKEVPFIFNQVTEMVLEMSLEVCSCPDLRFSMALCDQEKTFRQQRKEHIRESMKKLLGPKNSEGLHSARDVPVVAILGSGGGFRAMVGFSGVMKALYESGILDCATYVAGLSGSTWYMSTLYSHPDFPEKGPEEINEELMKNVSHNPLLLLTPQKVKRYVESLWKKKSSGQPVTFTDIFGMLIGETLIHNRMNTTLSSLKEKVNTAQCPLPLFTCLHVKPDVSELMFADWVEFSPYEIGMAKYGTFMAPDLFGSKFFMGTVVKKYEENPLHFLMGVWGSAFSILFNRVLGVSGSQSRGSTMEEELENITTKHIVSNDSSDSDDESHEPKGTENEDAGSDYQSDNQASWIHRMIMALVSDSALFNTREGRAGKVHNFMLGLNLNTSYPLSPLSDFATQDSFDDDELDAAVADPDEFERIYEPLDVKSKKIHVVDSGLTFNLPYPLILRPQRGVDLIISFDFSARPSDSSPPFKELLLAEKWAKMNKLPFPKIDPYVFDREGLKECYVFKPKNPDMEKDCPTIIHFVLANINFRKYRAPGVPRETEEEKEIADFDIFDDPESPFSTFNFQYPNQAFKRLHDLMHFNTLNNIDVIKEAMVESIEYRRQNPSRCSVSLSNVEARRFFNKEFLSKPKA
As to the kind of experiment: Coumarine Assay. The format is biochemical. The settings on record: 60 μM 7-hydroxycoumarinyl 6-heptenoate substrate, 4 μg cPLA2, pH 7.5, fluorescence ex 360 nm / em 460 nm; read-out: Coumarin IC50.

This note sets out measurements from US6635771B2, “N-benzhydryl indole compounds” (Wyeth, priority 2001, dated 2003).

Experimental: Inhibitors were mixed with 200 μL assay buffer (80 mM Heped, pH 7.5, 1 mM EDTA) containing 60 μM 7-hydroxycoumarinyl 6-heptenoate. The reaction was initiated by adding 4 μg cPLA2 in 50 μL assay buffer. Hydrolysis of the 7-hydroxycounarimyl 6-heptenoate ester was monitored in a fluorometer by exciting at 360 nm and monitoring emission at 460 nm. Enzyme activity is proportional to the increase in emission at 460 nm per minute. In the presence of a cPLA2 inhibitor, the rate of increase is less.

Regarding `O=C(O)c1ccc(OCCc2c(CCNS(=O)(=O)Cc3cccc(Cl)c3Cl)n(C(c3ccccc3)c3ccccc3)c3ccc(Cl)cc23)cc1` [Example 29, 4-{2-[1-benzhydryl-5-chloro-2-(2-{[(2,3-dichlorobenzyl)sulfonyl]amino}ethyl)-1H indol-3-yl]ethoxy}benzoic acid], the IC50 stood at 190 nM.

`O=C(O)c1ccc(OCCc2c(CCNS(=O)(=O)Cc3ccc(Cl)cc3Cl)n(C(c3ccccc3)c3ccccc3)c3ccc(Cl)cc23)cc1` [Example 30, 4-{2-[1-benzhydryl-5-chloro-2-(2-{[(2,4-dichlorobenzyl)sulfonyl]amino}ethyl)-1H-indol-3-yl]ethoxy}benzoic acid]: the IC50 is 150 nM.

Take `O=C(O)c1ccc(OCCc2c(CCNS(=O)(=O)Cc3ccc(Cl)cc3[N+](=O)[O-])n(C(c3ccccc3)c3ccccc3)c3ccc(Cl)cc23)cc1` [Example 32, 4-{2-[1-benzhydryl-5-chloro-2-(2-{[(4-chloro-2-nitrobenzyl)sulfonyl]amino}ethyl)-1H-indol-3-yl]ethoxy}benzoic acid]: the IC50 is 85 nM. The same measure for `N#Cc1cccc(CS(=O)(=O)NCCc2c(CCOc3ccc(C(=O)O)cc3)c3cc(Cl)ccc3n2C(c2ccccc2)c2ccccc2)c1` [Example 36, 4-{2-[1-Benzhydryl-5-chloro-2-(2-{[(3-cyanobenzyl)sulfonyl]amino}ethyl)-1H-indol-3-yl]ethoxy}benzoic acid]: 500 nM.

In the case of `N#Cc1ccc(CS(=O)(=O)NCCc2c(CCOc3ccc(C(=O)O)cc3)c3cc(Cl)ccc3n2C(c2ccccc2)c2ccccc2)cc1` [Example 37, 4-{2-[1-Benzhydryl-5-chloro-2-(2-{[(4-cyanobenzyl)sulfonyl]amino}ethyl)-1H-indol-3-yl]ethoxy}benzoic acid], the IC50 came out at 370 nM. To `O=C(O)c1ccc(OCCc2c(CCNS(=O)(=O)Cc3ccc(S(=O)(=O)N4CCCCC4)cc3)n(C(c3ccccc3)c3ccccc3)c3ccc(Cl)cc23)cc1` [Example 38, 4-(2-{1-Benzhydryl-5-chloro-2-[2-({[4-(1piperidinylsulfonyl)benzyl]sulfonyl}amino)ethyl]-1H-indol-3-yl}ethoxy)benzoic acid] belongs 500 nM. To `NS(=O)(=O)c1ccc(CS(=O)(=O)NCCc2c(CCOc3ccc(C(=O)O)cc3)c3cc(Cl)ccc3n2C(c2ccccc2)c2ccccc2)cc1` [Example 39, 4-(2-{2-[2-({[4-(Aminosulfonyl)benzyl]sulfonyl}amino)ethyl]-1-benzhydryl-5-chloro-1H-indol-3-yl}ethoxy)benzoic acid] belongs 320 nM; to `CS(=O)(=O)c1ccc(CS(=O)(=O)NCCc2c(CCOc3ccc(C(=O)O)cc3)c3cc(Cl)ccc3n2C(c2ccccc2)c2ccccc2)cc1` [Example 40, 4-(2-{1-Benzhydryl-5-chloro-2-[2-(4-methanesulfonyl-phenylmethanesulfonylamino)-ethyl]-1H-indol-3-yl}-ethoxy)-benzoic acid], 730 nM. To `CCN(CC)S(=O)(=O)c1ccc(CS(=O)(=O)NCCc2c(CCOc3ccc(C(=O)O)cc3)c3cc(Cl)ccc3n2C(c2ccccc2)c2ccccc2)cc1` [Example 41, 4-(2-{1-Benzhydryl-5-chloro-2-[2-(4-diethylsulfamoyl-phenylmethanesulfonylamino) -ethyl]-1H-indol-3-yl}-ethoxy)-benzoic acid] belongs 200 nM; to `O=C(O)c1ccc(CCCc2c(CCNS(=O)(=O)Cc3ccccc3)n(C(c3ccccc3)c3ccccc3)c3ccc(Cl)cc23)cc1` [Example 42, 4-{3-[1-Benzhydryl-5-chloro-2-(2-phenylmethanesulfonylamino-ethyl)-1H-indol-3-yl]-propyl)-benzoic acid], 180 nM.

As to `O=C(O)c1ccc(CCCc2c(CCNS(=O)(=O)Cc3cc(Cl)cc(Cl)c3)n(C(c3ccccc3)c3ccccc3)c3ccc(Cl)cc23)cc1` [Example 43, 4-{3-[1-benzhydryl-5-chloro-2-(2-{[(3,5-dichlorobenzyl)sulfonyl]amino}ethyl)-1H-indol-3-yl]propyl}benzoic acid], the half-maximal inhibitory concentration (IC50) was determined as 200 nM.

Turning to `O=C(O)c1ccc(OCCc2c(CCNS(=O)(=O)CCNC(=O)c3ccccc3C(=O)O)n(C(c3ccccc3)c3ccccc3)c3ccc(Cl)cc23)cc1` [Example 48, 2-{[(2-{[(2-{1-benzhydryl-3-[2-(4-carboxyphenoxy)ethyl]-5-chloro-1H-indol-2-yl}ethyl)amino]sulfonyl}ethyl)amino]carbonyl}benzoic acid], the 50% inhibitory concentration (IC50) worked out at 2350 nM. The same measure for `O=C(O)c1ccc(OCCc2c(CCNS(=O)(=O)Cc3cccnc3)n(C(c3ccccc3)c3ccccc3)c3ccc(Cl)cc23)cc1` [Example 49]: 1100 nM; for `O=C(O)c1ccc(OCCc2c(CCNS(=O)(=O)Cc3ccncc3)n(C(c3ccccc3)c3ccccc3)c3ccc(Cl)cc23)cc1` [Example 50]: 690 nM; for `O=C(O)c1ccc(OCCc2c(CCNS(=O)(=O)Cc3ccccn3)n(C(c3ccccc3)c3ccccc3)c3ccc(Cl)cc23)cc1` [Example 51]: 2200 nM.

In the case of `Cc1cccc(C)c1CS(=O)(=O)NCCc1c(CCCc2ccc(C(=O)O)cc2)c2cc(Cl)ccc2n1C(c1ccccc1)c1ccccc1` [Example 52, 4-{3-[1-benzhydryl-5-chloro-2-(2-{[(2,6-dimethylbenzyl)sulfonyl]amino}ethyl)-1H-indoly-3-yl]propyl}benzoic acid], the 50% inhibitory concentration (IC50) came to 130 nM. To `O=C(O)c1ccc(OCCc2c(CCNS(=O)(=O)Cc3ccc([N+](=O)[O-])cc3)n(C(c3ccccc3)c3ccccc3)c3ccc(Cl)cc23)cc1` [Example 54, 4-{2-[1-benzhydryl-5-chloro-2-(2-{[(4-nitrobenzyl)sulfonyl]amino}ethyl)-1H-indol-3-yl]ethoxy}benzoic acid] belongs 310 nM; to `O=C(O)c1ccc(OCCc2c(CCNS(=O)(=O)Cc3cccc([N+](=O)[O-])c3)n(C(c3ccccc3)c3ccccc3)c3ccc(Cl)cc23)cc1` [Example 55, 4-{2-[1-benzhydryl-5-chloro-2-(2-{[(3-nitrobenzyl)sulfonyl]amino}ethyl)-1H-indol-3-yl]ethoxy}benzoic acid], 260 nM; to `O=C(O)c1ccc(CCCc2c(CCNS(=O)(=O)Cc3ccc(F)cc3)n(C(c3ccccc3)c3ccccc3)c3ccc(Cl)cc23)cc1` [Example 57], 280 nM. The same measure for `O=C(O)c1ccc(CCCc2c(CCNS(=O)(=O)Cc3ccc(C(F)(F)F)cc3)n(C(c3ccccc3)c3ccccc3)c3ccc(Cl)cc23)cc1` [Example 58, 4-(3-{1-benzhydryl-5-chloro-2-[2-({[4-(trifluoromethyl)benzyl]sulfonyl}amino)ethyl]-1H-indol-3-yl}propyl)benzoic acid]: 360 nM; for `O=C(O)c1ccc(CCCc2c(CCNS(=O)(=O)Cc3cccc(C(F)(F)F)c3)n(C(c3ccccc3)c3ccccc3)c3ccc(Cl)cc23)cc1` [Example 59, 4-(3-{1-benzhydryl-5-chloro-2-[2-({[3-(trifluoromethyl)benzyl]sulfonyl}amino)ethyl]-1H-indol-3-yl}propyl)benzoic acid]: 290 nM. The same measure for `O=C(O)c1ccc(CCCc2c(CCNS(=O)(=O)Cc3ccccn3)n(C(c3ccccc3)c3ccccc3)c3ccc(Cl)cc23)cc1` [Example 61, 4-{3-[1-benzhydryl-5-chloro-2-(2-{[(2-pyridinylmethyl)sulfonyl]amino}ethyl)-1H-indol-3-yl]propyl}benzoic acid]: 340 nM; for `O=C(O)c1ccc(CCCc2c(CCNS(=O)(=O)Cc3cccnc3)n(C(c3ccccc3)c3ccccc3)c3ccc(Cl)cc23)cc1` [Example 62, 4-(3-[1-benzhydryl-5-chloro-2-(2-{[(3-pyridinylmethyl)sulfonyl]amino}ethyl)-1H-indol-3-yl]propyl}benzoic acid]: 380 nM; for `O=C(O)c1ccc(CCCc2c(CCNS(=O)(=O)Cc3ccncc3)n(C(c3ccccc3)c3ccccc3)c3ccc(Cl)cc23)cc1` [Example 63, 4-{3-[1-benzhydryl-5-chloro-2-(2-{[(4-pyridinylmethyl)sulfonyl]amino}ethyl)-1H-indol-3-yl]propyl}benzoic acid]: 300 nM.

On to `O=C(O)c1ccc(CCCc2c(CCNS(=O)(=O)Cc3cccc([N+](=O)[O-])c3)n(C(c3ccccc3)c3ccccc3)c3ccc(Cl)cc23)cc1` [Example 65, 4-{3-[1-benzhydryl-5-chloro-2-(2-{[(3-nitrobenzyl)sulfonyl]amino}ethyl)-1H-indol-3-yl]propyl}benzoic acid], for which the IC50 worked out at 130 nM. The same measure for `O=C(O)c1ccc(CCCc2c(CCNS(=O)(=O)Cc3cccc(Cl)c3)n(C(c3ccccc3)c3ccccc3)c3ccc(Cl)cc23)cc1` [Example 66, 4-{3-[1-benzhydryl-5chloro-2-(2{[(3-chlorobenzyl)sulfonyl]amino}ethyl)-1H-indol-3-yl]propyl}benzoic acid]: 150 nM; for `O=C(O)c1ccc(CCCc2c(CCNS(=O)(=O)Cc3cc(Cl)ccc3Cl)n(C(c3ccccc3)c3ccccc3)c3ccc(Cl)cc23)cc1` [Example 67, 4-{3-[1-benzhydryl-5-chloro-2-(2-{[(2,5-dichlorobenzyl)sulfonyl]amino}ethyl)-1H-indol-3-yl]propyl}benzoic acid]: 140 nM.

In general, IC50 refers to the concentration at which inhibition is half-maximal.
